# Source: ChEMBL document CHEMBL1136307, “Novel chromene derivatives as TNF-alpha inhibitors” (Bioorg Med Chem Lett, 2003)
# Test: Inhibitory activity against TNF-alpha production in human peripheral blood mononuclear cells(PBMC) using an ELISA assay
# Assay type: functional
row,Structure (SMILES),IC50 [µM]
1,COc1ccc2c(c1)OC(c1cc(OC)c(OC)c(OC)c1)C(C(=O)OCCc1ccccc1)=C2 (centres undefined),> 50
2,COc1ccc2c(c1)OC(c1cc(OC)c(OC)c(OC)c1)C(C(=O)NC(C)C)=C2 (centres undefined),41.6
3,COc1ccc2c(c1)OC(c1cc(OC)c(OC)c(OC)c1)C(C(=O)N(C)OC)=C2 (centres undefined),31.1
4,COc1ccc2c(c1)OC(c1cc(OC)c(OC)c(OC)c1)C(C(=O)NC(C)(C)C)=C2 (centres undefined),> 50
5,COc1ccc2c(c1)OC(c1cc(OC)c(OC)c(OC)c1)C(C(=O)Nc1ccccc1)=C2 (centres undefined),> 50
6,CCNC(=O)C1=Cc2ccc(OC)cc2OC1c1cc(OC)c(OC)c(OC)c1 (centres undefined),17.9
7,COc1ccc2c(c1)OC(c1cc(OC)c(OC)c(OC)c1)C(C(=O)N1CCCCC1)=C2 (centres undefined),48
8,COc1ccc2c(c1)OC(c1cc(OC)c(OC)c(OC)c1)C(C(=O)O)=C2 (centres undefined),> 50
9,COc1ccc2c(c1)OC(c1cc(OC)c(OC)c(OC)c1)C(C(=O)N(C)C)=C2 (centres undefined),> 50
10,CCCCNC(=O)C1=Cc2ccc(OC)cc2OC1c1cc(OC)c(OC)c(OC)c1 (centres undefined),31.3

# These reach a lower IC50. Values come first.
row,IC50 [µM],Structure (SMILES)
1,13,COc1ccc2c(c1)OC(c1cc(OC)c(OC)c(OC)c1)C(C(=O)OC(C)(C)C)=C2 (centres undefined)
2,12,COc1ccc2c(c1)OC(c1cc(OC)c(OC)c(OC)c1)C(C(=O)OC(C)C)=C2 (centres undefined)
3,11.6,COc1ccc2c(c1)OC(c1cc(OC)c(OC)c(OC)c1)C=C2 (centres undefined)
4,8.1,CNC(=O)C1=Cc2ccc(OC)cc2OC1c1cc(OC)c(OC)c(OC)c1 (centres undefined)
5,7,CCOC(=O)C1=Cc2ccc(OC)cc2OC1c1cc(OC)c(OC)c(OC)c1 (centres undefined)
6,4.7,CCCC(=O)C1=Cc2ccc(OC)cc2OC1c1cc(OC)c(OC)c(OC)c1 (centres undefined)
7,4.1,COc1ccc2c(c1)OC(c1cc(OC)c(OC)c(OC)c1)C(/C=N/O)=C2 (centres undefined)
8,2.4,COc1ccc2c(c1)OC(c1cc(OC)c(OC)c(OC)c1)C(CO)=C2 (centres undefined)
9,2,COC(=O)C1=Cc2ccc(OC)cc2OC1c1cc(OC)c(OC)c(OC)c1 (centres undefined)
10,1.1,CCOCC1=Cc2ccc(OC)cc2OC1c1cc(OC)c(OC)c(OC)c1 (centres undefined)
11,0.6,COc1ccc2c(c1)OC(c1cc(OC)c(OC)c(OC)c1)C(C#N)=C2 (centres undefined)
12,0.6,COc1ccc2c(c1)OC(c1cc(OC)c(OC)c(OC)c1)C(C(N)=O)=C2 (centres undefined)
13,0.6,COc1ccc2c(c1)OC(c1cc(OC)c(OC)c(OC)c1)C(C=O)=C2 (centres undefined)
14,0.1,COc1ccc2c(c1)OC(c1cc(OC)c(OC)c(OC)c1)C(C(C)=O)=C2 (centres undefined)
